Values of other authors, collected in patent US20120178757A1, “Method For The Prevention Of Cancer Metastasis” (NOTTINGHAM UNIVERSITY HOSPITALS NHS TRUST, priority 2010, published 2012).
Entries after “also recorded” stand apart in the source; their conditions may differ.

Key:
[1] = tested on: human pancreatic cell lines
[2] = tested on: carcinoma cell lines of colon, prostate, ovary and breast; details: adrenoceptor-mediated, norepinephrine-induced migration of cancer cells
[3] = tested on: prostate cancer; details: coincidental treatment for hypertension or benign prostate hyperplasia
[4] = tested on: breast cancer cells; details: in vitro breast cancer cells

| SMILES | proliferation [1] | cell migration [2] | incidence of prostate cancer [3] | apoptosis [4] | proliferation [4] |
| --- | --- | --- | --- | --- | --- |
| CC(C)NCC(O)COc1cccc2ccccc12 (stereo not drawn) [propranolol, Propranolol] | can reduce proliferation | can be inhibited; also recorded: is inhibited | – | – | – |
| COc1cc2nc(N3CCN(C(=O)C4COc5ccccc5O4)CC3)nc(N)c2cc1OC (stereo not drawn) [doxazosin, Doxazosin] | – | – | significantly lowered the incidence of prostate cancer | induce apoptosis | inhibit proliferation |
| COc1cc2nc(N3CCN(C(=O)C4CCCO4)CC3)nc(N)c2cc1OC (stereo not drawn) [terazosin, Terazosin] | – | – | significantly lowered the incidence of prostate cancer | – | – |
